Structures can show the parent of a compound that is named as a salt.
These compounds were tested against T1, SYK (Homo sapiens, UniProt P43405) (assay: Biochemical kinase inhibition assay on SYK, KinaseGlo assay format). Conditions: Table A; KinaseGlo format, pre-activated SYK 2.5 nM, ATP 2.5 μM, substrate BioDBn*327 125 uM, 60 minutes at rt; read-out: IC50 (μM) Kglo.
T1 construct: Recombinant proteins SYK FL was produced at NMS via baculo virus infection in insect cells; His; GST; made in house; host or cells: insect cells (baculovirus)

SMILES | IC50
Cc1cc(C)cc(Nc2nccc(-c3cc(C(=O)NC(C)C)n(C)n3)n2)c1 [Example 4, 3-{2-[(3,5-dimethylphenyl)amino]pyrimidin-4-yl}-1-methyl-N-(propan-2-yl)-1H-pyrazole-5-carboxamide] | 0.111 µM
Cc1cc(C)cc(Nc2nccc(-c3cc(C(=O)N(C)CCN(C)C)n(C)n3)n2)c1 [Example 5, N-[2-(dimethylamino)ethyl]-3-{2-[(3,5-dimethylphenyl)amino]pyrimidin-4-yl}-N,1-dimethyl-1H-pyrazole-5-carboxamide] | 0.084 µM
Cc1cc(C)cc(Nc2nccc(-c3cc(C(=O)NC4CNC4)n(C)n3)n2)c1 [Example 8, N-(azetidin-3-yl)-3-{2-[(3,5-dimethylphenyl)amino]pyrimidin-4-yl}-1-methyl-1H-pyrazole-5-carboxamide trifluoroacetate] | 0.282 µM
Cc1cc(C)cc(Nc2nccc(-c3cc(C(=O)NCCN4CCOCC4)n(C)n3)n2)c1 [Example 9, 3-{2-[(3,5-dimethylphenyl)amino]pyrimidin-4-yl}-1-methyl-N-[2-(morpholin-4-yl)ethyl]-1H-pyrazole-5-carboxamide] | 0.398 µM
CN(C)CCNC(=O)c1cc(-c2ccnc(Nc3cc(C(F)(F)F)cc(C(F)(F)F)c3)n2)nn1C [Example 18, 3-(2-{[3,5-bis(trifluoromethyl)phenyl]amino}pyrimidin-4-yl)-N-[2-(dimethylamino)ethyl]-1-methyl-1H-pyrazole-5-carboxamide hydrochloride] | 0.491 µM
C[C@@H](CO)NC(=O)c1cc(-c2ccnc(Nc3cc(C(F)(F)F)cc(C(F)(F)F)c3)n2)nn1C [Example 19, 3-(2-{[3,5-bis(trifluoromethyl)phenyl]amino}pyrimidin-4-yl)-N-[(2S)-1-hydroxypropan-2-yl]-1-methyl-1H-pyrazole-5-carboxamide] | 0.104 µM
Cc1cc(C)cc(Nc2nccc(-c3cc(C(=O)Nc4cc[nH]n4)n(C)n3)n2)c1 [Example 20, 3-{2-[(3,5-dimethylphenyl)amino]pyrimidin-4-yl}-1-methyl-N-(1H-pyrazol-3-yl)-1H-pyrazole-5-carboxamide] | 0.109 µM
Cc1cc(C)cc(Nc2nccc(-c3cc(C(=O)NCc4cncn4C)n(C)n3)n2)c1 [Example 25, 3-{2-[(3,5-dimethylphenyl)amino]pyrimidin-4-yl}-1-methyl-N-[(1-methyl-1H-imidazol-5-yl)methyl]-1H-pyrazole-5-carboxamide] | 0.249 µM
Cc1cc(C)cc(Nc2nccc(-c3cc(C(=O)NC4CN5CCC4CC5)n(C)n3)n2)c1 (stereo not drawn) [Example 31, N-(1-azabicyclo[2.2.2]oct-3-yl)-3-{2-[(3,5-dimethylphenyl)amino]pyrimidin-4-yl}-1-methyl-1H-pyrazole-5-carboxamide] | 0.139 µM
Cc1cc(C)cc(Nc2nccc(-c3cc(C(=O)N4CCNCC4)n(C)n3)n2)c1 [Example 36, (3-{2-[(3,5-dimethylphenyl)amino]pyrimidin-4-yl}-1-methyl-1H-pyrazol-5-yl)(piperazin-1-yl)methanone hydrochloride] | 0.169 µM
Cn1nc(-c2ccnc(Nc3ccc4c(c3)c(Cl)cn4C)n2)cc1C(=O)N[C@H]1CCCC[C@H]1N [Example 38, N-[(1S,2R)-2-aminocyclohexyl]-3-{2-[(3-chloro-1-methyl-1H-indol-5-yl)amino]pyrimidin-4-yl}-1-methyl-1H-pyrazole-5-carboxamide hydrochloride] | 0.005 µM
Cc1cccc(Nc2nccc(-c3cc(C(=O)N[C@H](CO)C(C)C)n(C)n3)n2)c1 [Example 41, N-[(2S)-1-hydroxy-3-methylbutan-2-yl]-1-methyl-3-{2-[(3-methylphenyl)amino]pyrimidin-4-yl}-1H-pyrazole-5-carboxamide] | 0.077 µM
Cc1cc(C)cc(Nc2nccc(-c3cc(C(=O)NCC(C)C)n(C)n3)n2)c1 [Example 46, 3-{2-[(3,5-dimethylphenyl)amino]pyrimidin-4-yl}-1-methyl-N-(2-methylpropyl)-1H-pyrazole-5-carboxamide] | 0.049 µM
Cc1cccc(Nc2nccc(-c3cc(C(=O)N[C@H]4CCCC[C@@H]4N)n(C)n3)n2)c1 [Example 53, N-[(1S,2S)-2-aminocyclohexyl]-1-methyl-3-{2-[(3-methylphenyl)amino]pyrimidin-4-yl}-1H-pyrazole-5-carboxamide] | 0.015 µM
CC[C@H](NC(=O)c1cc(-c2ccnc(Nc3cc(C)cc(C)c3)n2)nn1C)C(F)(F)F [Example 55, 3-{2-[(3,5-dimethylphenyl)amino]pyrimidin-4-yl}-1-methyl-N-[(2S)-1,1,1-trifluorobutan-2-yl]-1H-pyrazole-5-carboxamide] | 0.324 µM
COc1cc(Nc2nccc(-c3cc(C(=O)N[C@@H](C)CN4CCCC4)n(C)n3)n2)cc(OC)c1OC [Example 58, 1-methyl-N-[(2S)-1-(pyrrolidin-1-yl)propan-2-yl]-3-{2-[(3,4,5-trimethoxyphenyl)amino]pyrimidin-4-yl}-1H-pyrazole-5-carboxamide] | 0.059 µM
C[C@@H](CN1CCC1)NC(=O)c1cc(-c2ccnc(Nc3ccc4c(c3)c(Cl)cn4C)n2)nn1C [Example 59, N-[(2S)-1-(azetidin-1-yl)propan-2-yl]-3-{2-[(3-chloro-1-methyl-1H-indol-5-yl)amino]pyrimidin-4-yl}-1-methyl-1H-pyrazole-5-carboxamide] | < 0.004 µM
CC(C)[C@@H](CN1CCC1)NC(=O)c1cc(-c2ccnc(Nc3cc(Cl)cc(Cl)c3)n2)nn1C [Example 61, N-[(2S)-1-(azetidin-1-yl)-3-methylbutan-2-yl]-3-{2-[(3,5-dichlorophenyl)amino]pyrimidin-4-yl}-1-methyl-1H-pyrazole-5-carboxamide] | 0.004 µM
Cc1cc(C)cc(Nc2nccc(-c3cc(C(=O)N4CC[C@@H](O)C4)n(C)n3)n2)c1 [Example 85, (3-{2-[(3,5-dimethylphenyl)amino]pyrimidin-4-yl}-1-methyl-1H-pyrazol-5-yl)[(3R)-3-hydroxypyrrolidin-1-yl]methanone] | 0.209 µM

Results, then the compound that gave them:

IC50 | SMILES
0.398 µM | Cc1cc(C)cc(Nc2nccc(-c3cc(C(=O)NCCNC(C)C)n(C)n3)n2)c1 [Example 12, 3-{2-[(3,5-dimethylphenyl)amino]pyrimidin-4-yl}-1-methyl-N-[2-(propan-2-ylamino)ethyl]-1H-pyrazole-5-carboxamide hydrochloride]
0.226 µM | Cc1cc(C)cc(Nc2nccc(-c3cc(C(N)=O)n(C)n3)n2)c1 [Example 13, 3-{2-[(3,5-dimethylphenyl)amino]pyrimidin-4-yl}-1-methyl-1H-pyrazole-5-carboxamide]
0.358 µM | Cc1cc(C)cc(Nc2nccc(-c3cc(C(=O)N(C)C)n(C)n3)n2)c1 [Example 15, 3-{2-[(3,5-dimethylphenyl)amino]pyrimidin-4-yl}-N,N,1-trimethyl-1H-pyrazole-5-carboxamide]
0.272 µM | COCCNC(=O)c1cc(-c2ccnc(Nc3cc(C)cc(C)c3)n2)nn1C [Example 16, 3-{2-[(3,5-dimethylphenyl)amino]pyrimidin-4-yl}-N-(2-methoxyethyl)-1-methyl-1H-pyrazole-5-carboxamide]
0.06 µM | Cc1cc(C)cc(Nc2nccc(-c3cc(C(=O)NCCF)n(C)n3)n2)c1 [Example 17, 3-{2-[(3,5-dimethylphenyl)amino]pyrimidin-4-yl}-N-(2-fluoroethyl)-1-methyl-1H-pyrazole-5-carboxamide]
0.238 µM | Cc1cc(C)cc(Nc2nccc(-c3cc(C(=O)N4CCN(C)CC4)n(C)n3)n2)c1 [Example 21, (3-{2-[(3,5-dimethylphenyl)amino]pyrimidin-4-yl}-1-methyl-1H-pyrazol-5-yl)(4-methylpiperazin-1-yl)methanone]
0.074 µM | Cc1cc(C)cc(Nc2nccc(-c3cc(C(=O)N[C@@H]4CCCC[C@H]4O)n(C)n3)n2)c1 [Example 32, 5-[2-(3,5-Dimethyl-phenylamino)-pyrimidin-4-yl]-2-methyl-2H-pyrazole-3-carboxylic acid ((1R,2R)-2-hydroxy-cyclohexyl)-amide]
0.009 µM | COc1cc(Nc2nccc(-c3cc(C(=O)N[C@H]4CCCC[C@H]4N)n(C)n3)n2)cc(C(F)(F)F)c1 [Example 37, N-[(1S,2R)-2-aminocyclohexyl]-3-(2-{[3-methoxy-5-(trifluoromethyl)phenyl]amino}pyrimidin-4-yl)-1-methyl-1H-pyrazole-5-carboxamide hydrochloride]
0.474 µM | Cc1cc(C)cc(Nc2nccc(-c3cc(C(=O)N[C@@H](C)C(F)(F)F)n(C)n3)n2)c1 [Example 42, 3-{2-[(3,5-dimethylphenyl)amino]pyrimidin-4-yl}-1-methyl-N-[(2S)-1,1,1-trifluoropropan-2-yl]-1H-pyrazole-5-carboxamide]
0.065 µM | Cc1cc(C)cc(Nc2nccc(-c3cc(C(=O)NCC(C)(C)C)n(C)n3)n2)c1 [Example 45, 3-{2-[(3,5-dimethylphenyl)amino]pyrimidin-4-yl}-N-(2,2-dimethylpropyl)-1-methyl-1H-pyrazole-5-carboxamide]
0.04 µM | Cc1cc(C)cc(Nc2nccc(-c3cc(C(=O)NCC4CC4)n(C)n3)n2)c1 [Example 47, N-(cyclopropylmethyl)-3-{2-[(3,5-dimethylphenyl)amino]pyrimidin-4-yl}-1-methyl-1H-pyrazole-5-carboxamide]
0.081 µM | CC[C@@H](NC(=O)c1cc(-c2ccnc(Nc3cc(C)cc(C)c3)n2)nn1C)C(F)(F)F [Example 56, 3-{2-[(3,5-dimethylphenyl)amino]pyrimidin-4-yl}-1-methyl-N-[(2R)-1,1,1-trifluorobutan-2-yl]-1H-pyrazole-5-carboxamide]
0.032 µM | COc1cccc(Nc2nccc(-c3cc(C(=O)N[C@@H](C)CN4CCCC4)n(C)n3)n2)c1 [Example 70, 3-{2-[(3-methoxyphenyl)amino]pyrimidin-4-yl}-1-methyl-N-[(2S)-1-(pyrrolidin-1-yl)propan-2-yl]-1H-pyrazole-5-carboxamide]
0.452 µM | COc1cc(Nc2nccc(-c3cc(C(=O)N[C@@H](C)C(=O)N(C)C)n(C)n3)n2)cc(OC)c1 [Example 71, 3-{2-[(3,5-dimethoxyphenyl)amino]pyrimidin-4-yl}-N-[(2S)-1-(dimethylamino)-1-oxopropan-2-yl]-1-methyl-1H-pyrazole-5-carboxamide]
